Experimental data published in the supplement of paper PMC10307832.

Tests used:
Assay in all cases: relative viability (nuclei count vs DMSO), 5 days (fraction); higher = more cells survive
A-427 = tested on: A-427
Outline: (§1)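 One day after seeding in 1536-well plates, lung cancer cell lines were dosed by pin tool. Dosing was either single-drug or a fixed anchor-drug dose plus five library-drug doses (not always all listed) in √10 steps. After 5 days, nuclei were stained in one fix-and-stain step and counted on 4× images, and relative viability is the nuclei count of treated wells over that of vehicle wells, given as the median of duplicate plates.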

CAL-12T = tested on: CAL-12T
Outline: as §1

COR-L 105 = tested on: COR-L 105
Outline: as §1

COR-L23 = tested on: COR-L23
Outline: as §1

EPLC-272H = tested on: EPLC-272H
Outline: as §1

HOP-62 = tested on: HOP-62
Outline: as §1

LCLC-103H = tested on: LCLC-103H
Outline: as §1

LXF-289 = tested on: LXF-289
Outline: as §1

NCI-H1395 = tested on: NCI-H1395
Outline: as §1

NCI-H1651 = tested on: NCI-H1651
Outline: as §1

NCI-H1975 = tested on: NCI-H1975
Outline: as §1

NCI-H1993 = tested on: NCI-H1993
Outline: as §1

NCI-H2023 = tested on: NCI-H2023
Outline: as §1

NCI-H2085 = tested on: NCI-H2085
Outline: as §1

NCI-H2087 = tested on: NCI-H2087
Outline: as §1

NCI-H3122 = tested on: NCI-H3122
Outline: as §1

NCI-H596 = tested on: NCI-H596
Outline: as §1

NCI-H647 = tested on: NCI-H647
Outline: as §1

NCI-H650 = tested on: NCI-H650
Outline: as §1

PC-14 = tested on: PC-14
Outline: as §1

RERF-LC-KJ = tested on: RERF-LC-KJ
Outline: as §1

SK-MES-1 = tested on: SK-MES-1
Outline: as §1

Cc1cnc(-c2cnc(NCCNc3ccc(C#N)cn3)nc2-c2ccc(Cl)cc2Cl)[nH]1 + C[C@]1(O)C[C@@H](c2nc(-c3ccc4ccc(-c5ccccc5)nc4c3)c3c(N)nccn32)C1 [Linsitinib] (partner 1 µM)
relative viability (A-427; first compound 0.08 µM): 1.09
relative viability (A-427; first compound 0.253 µM): 1.12
relative viability (A-427; first compound 0.8 µM): 1.11
relative viability (A-427; first compound 2.53 µM): 1.15
relative viability (CAL-12T; first compound 0.08 µM): 0.806
relative viability (CAL-12T; first compound 0.253 µM): 0.787
relative viability (CAL-12T; first compound 0.8 µM): 0.841
relative viability (CAL-12T; first compound 2.53 µM): 0.837
relative viability (COR-L 105; first compound 0.08 µM): 1
relative viability (COR-L 105; first compound 0.253 µM): 0.897
relative viability (COR-L 105; first compound 0.8 µM): 0.832
relative viability (COR-L 105; first compound 2.53 µM): 0.697
relative viability (COR-L23; first compound 0.08 µM): 0.814
relative viability (COR-L23; first compound 0.253 µM): 0.833
relative viability (COR-L23; first compound 0.8 µM): 0.929
relative viability (COR-L23; first compound 2.53 µM): 0.962
relative viability (EPLC-272H; first compound 0.08 µM): 1.08
relative viability (EPLC-272H; first compound 0.253 µM): 1.18
relative viability (EPLC-272H; first compound 0.8 µM): 1.27
relative viability (EPLC-272H; first compound 2.53 µM): 1.13
relative viability (HOP-62; first compound 0.08 µM): 1.09
relative viability (HOP-62; first compound 0.253 µM): 0.972
relative viability (HOP-62; first compound 0.8 µM): 0.775
relative viability (HOP-62; first compound 2.53 µM): 0.794
relative viability (LCLC-103H; first compound 0.08 µM): 0.968
relative viability (LCLC-103H; first compound 0.253 µM): 1.11
relative viability (LCLC-103H; first compound 0.8 µM): 1.21
relative viability (LCLC-103H; first compound 2.53 µM): 1.09
relative viability (LXF-289; first compound 0.08 µM): 0.965
relative viability (LXF-289; first compound 0.253 µM): 0.897
relative viability (LXF-289; first compound 0.8 µM): 1.01
relative viability (LXF-289; first compound 2.53 µM): 0.984
relative viability (NCI-H1395; first compound 0.08 µM): 1.17
relative viability (NCI-H1395; first compound 0.253 µM): 0.972
relative viability (NCI-H1395; first compound 0.8 µM): 1.04
relative viability (NCI-H1395; first compound 2.53 µM): 1
relative viability (NCI-H1651; first compound 0.08 µM): 1.22
relative viability (NCI-H1651; first compound 0.253 µM): 0.893
relative viability (NCI-H1651; first compound 0.8 µM): 1.04
relative viability (NCI-H1651; first compound 2.53 µM): 1.06
relative viability (NCI-H1975; first compound 0.08 µM): 1
relative viability (NCI-H1975; first compound 0.253 µM): 0.847
relative viability (NCI-H1975; first compound 0.8 µM): 0.836
relative viability (NCI-H1975; first compound 2.53 µM): 0.603
relative viability (NCI-H1993; first compound 0.08 µM): 0.74
relative viability (NCI-H1993; first compound 0.253 µM): 0.763
relative viability (NCI-H1993; first compound 0.8 µM): 0.701
relative viability (NCI-H1993; first compound 2.53 µM): 0.784
relative viability (NCI-H2023; first compound 0.08 µM): 0.779
relative viability (NCI-H2023; first compound 0.253 µM): 0.649
relative viability (NCI-H2023; first compound 0.8 µM): 0.794
relative viability (NCI-H2023; first compound 2.53 µM): 1.12
relative viability (NCI-H2085; first compound 0.08 µM): 0.986
relative viability (NCI-H2085; first compound 0.253 µM): 0.932
relative viability (NCI-H2085; first compound 0.8 µM): 0.919
relative viability (NCI-H2085; first compound 2.53 µM): 0.882
relative viability (NCI-H2087; first compound 0.08 µM): 0.907
relative viability (NCI-H2087; first compound 0.253 µM): 0.978
relative viability (NCI-H2087; first compound 0.8 µM): 0.987
relative viability (NCI-H2087; first compound 2.53 µM): 1.02
relative viability (NCI-H3122; first compound 0.08 µM): 1.04
relative viability (NCI-H3122; first compound 0.253 µM): 0.949
relative viability (NCI-H3122; first compound 0.8 µM): 1.04
relative viability (NCI-H3122; first compound 2.53 µM): 0.997
relative viability (NCI-H596; first compound 0.08 µM): 1.02
relative viability (NCI-H596; first compound 0.253 µM): 1.11
relative viability (NCI-H596; first compound 0.8 µM): 1.06
relative viability (NCI-H596; first compound 2.53 µM): 1.07
relative viability (NCI-H647; first compound 0.08 µM): 1.17
relative viability (NCI-H647; first compound 0.253 µM): 0.993
relative viability (NCI-H647; first compound 0.8 µM): 1.17
relative viability (NCI-H647; first compound 2.53 µM): 1.03
relative viability (NCI-H650; first compound 0.08 µM): 1.02
relative viability (NCI-H650; first compound 0.253 µM): 0.769
relative viability (NCI-H650; first compound 0.8 µM): 0.93
relative viability (NCI-H650; first compound 2.53 µM): 0.712
relative viability (PC-14; first compound 0.08 µM): 0.946
relative viability (PC-14; first compound 0.253 µM): 0.896
relative viability (PC-14; first compound 0.8 µM): 0.913
relative viability (PC-14; first compound 2.53 µM): 0.834
relative viability (RERF-LC-KJ; first compound 0.08 µM): 0.948
relative viability (RERF-LC-KJ; first compound 0.253 µM): 0.828
relative viability (RERF-LC-KJ; first compound 0.8 µM): 0.843
relative viability (RERF-LC-KJ; first compound 2.53 µM): 0.877
relative viability (SK-MES-1; first compound 0.08 µM): 1.2
relative viability (SK-MES-1; first compound 0.253 µM): 1.03
relative viability (SK-MES-1; first compound 0.8 µM): 1.05
relative viability (SK-MES-1; first compound 2.53 µM): 1.04
